Reference: paper PMC10352257, “In vivo effects of the alpha-synuclein misfolding inhibitor minzasolmin supports clinical development in Parkinson’s disease” (NPJ Parkinson's Disease, 2023)
Entries after “also recorded” stand apart in the source; their conditions may differ. Where two headings read alike, the source gives them in different places.

Tests used:
[1] = Mouse pharmacokinetics after single intraperitoneal dose (plasma and brain); format: in vivo; conditions: for AUC last / Cmax / AUC(0-t): mean ± SEM; for Kp / Tmax / half-life / Cmax / AUC(0-inf) / AUC(0-t): male, C57BL/6, mouse, ip; for Kp: brain and plasma, from AUCinf, read-out: brain/plasma exposure (AUC) ratio
Method: Characterization of exposure profile and brain distribution of minzasolmin in male C57BL/6 mice was performed at UCB BioPharma SPRL (Braine l’Alleud, Belgium). All the procedures were approved by the UCB Ethics Committee for Animal Experimentation and conducted in compliance with the Helsinki declaration and the guidelines of the European Community Council directive 86/609/EEC. UCB BioPharma is fully accredited by the Association for Assessment and Accreditation of Laboratory Animal Care (AAALAC). Male C57BL/6 mice (8 weeks of age, 20–27 g), purchased from Charles River Laboratories (Toulouse, France), were dosed intraperitoneally with 1 or 5 mg/kg of minzasolmin (10 mL/kg of 40% w/v Captisol® in water). Three mice were used per dose and per time of sampling (0.25, 0.5, 1, 2.5, and 6 h). Mice were anaesthetized with isofluorane and blood was collected from the vena cava into K2EDTA tubes. Animals were then perfused through the left ventricle with 20 mL of heparinized NaCl 0.9% (20 UI/mL), rate flow 20 mL/min, 1 min perfusion time. At the end of the procedure mice were sacrificed by cervical dislocation. Brain samples were weighed and collected in cold glass vials and stored at −20 °C, until bioanalysis. All blood samples were thoroughly but gently mixed following collection and placed directly on ice then centrifuged at 4 °C, 3000 g for 15 min within 30 min after sampling. The collected plasma was stored at −20 °C, until bioanalysis. Samples were analyzed by liquid chromatography-tandem mass spectrometry (LC-MS/MS). Results of minzasolmin concentrations in plasma and brain are reported in ng/mL and ng/g respectively. Pharmacokinetic profiling was performed by non-compartmental analysis, using Phoenix WinNonlin v6.4 software (Pharsight Inc., St. Louis, MO). All computations utilized the sparse sampling method according to the experimental composite sampling regimen.

Line 61 transgenic mice [2] = experiment: Tolerability in the 3-month administration study; format: in vivo; conditions: 1 or 5 mg/kg i.p. once daily for 3 months; no apparent adverse effects on subject health
Text: A transgenic mouse model of Parkinson’s disease overexpressing human wild-type ASYN under the murine Thy-1 promoter on a mixed C57Bl/6 background was used in the present studies (commonly referred to Line 61)[49]. The Line 61 transgenic mouse model of Parkinson’s disease develops extensive accumulation of ASYN in areas relevant to Parkinson’s disease[49]–[51], neurodegeneration (as evidenced by loss of tyrosine hydroxylase[52],[53] and dopamine transporter immunoreactivity[18] in the striatum), inflammation, and both motor and non-motor functional deficits. Multiple cohorts of mice were transferred from the University of California, San Diego to a Neuropore-funded AAALAC-accredited vivarium facility per a laboratory service agreement between Neuropore Therapies, Inc. and the laboratory of Dr. Eliezer Masliah under institutional animal care and use committee (IACUC) Protocol S02221. All in vivo testing was conducted by Neuropore personnel under Explora Biosciences animal care and use protocol (ACUP) number E15-016-2. […]. Animals received free access to food and water prior to the experiment. The vivarium ambient room temperature was monitored daily and kept within a range of 68–72 degrees Fahrenheit. Animals were kept on a 12:12 diurnal light cycle, with lights on at 0600. […]

Line 61 transgenic mice [3] = experiment: Round beam traversal test (composite gait score), 3-month administration study; format: in vivo, mouse; conditions: for round beam composite score, Kruskal-Wallis mean rank: Line 61 tg, Line 61 tg/Vehicle 6.611, Non-tg/Vehicle 34.25
Text: A transgenic mouse model of Parkinson’s disease overexpressing human wild-type ASYN under the murine Thy-1 promoter on a mixed C57Bl/6 background was used in the present studies (commonly referred to Line 61)[49]. The Line 61 transgenic mouse model of Parkinson’s disease develops extensive accumulation of ASYN in areas relevant to Parkinson’s disease[49]–[51], neurodegeneration (as evidenced by loss of tyrosine hydroxylase[52],[53] and dopamine transporter immunoreactivity[18] in the striatum), inflammation, and both motor and non-motor functional deficits. Multiple cohorts of mice were transferred from the University of California, San Diego to a Neuropore-funded AAALAC-accredited vivarium facility per a laboratory service agreement between Neuropore Therapies, Inc. and the laboratory of Dr. Eliezer Masliah under institutional animal care and use committee (IACUC) Protocol S02221. All in vivo testing was conducted by Neuropore personnel under Explora Biosciences animal care and use protocol (ACUP) number E15-016-2. Three-month-old male transgenic and age-matched non-transgenic littermate control mice were used and housed up to 5 per cage. Animals received free access to food and water prior to the experiment. The vivarium ambient room temperature was monitored daily and kept within a range of 68–72 degrees Fahrenheit. […]
Line 61 transgenic mice have robust and visually apparent deficits in gait as evaluated in the round beam traversal test by 6 months of age that are improved by treatment with small molecule compounds including ASYN misfolding inhibitors[17],[18] and the molecular tweezer compound CLR01[56]. […] Videotapes were then scored by a secondary evaluator using a newly developed composite rating system for specific observed features of Line 61 gait during the round beam assessment. […] Scores were analyzed by nonparametric Kruskal–Wallis one-way ANOVA with key comparisons defined a priori, first to test for a phenotypic difference between vehicle-treated groups and then to test for minzasolmin-related treatment effects in Line 61 transgenic mice. […]

[4] = brain, 1 mg/kg single i.p., C57/Bl6 mice
[5] = brain, 5 mg/kg single i.p., C57/Bl6 mice
[6] = plasma, 1 mg/kg single i.p., C57/Bl6 mice
[7] = plasma, 5 mg/kg single i.p., C57/Bl6 mice

Q: What does the source list for CCCC[C@H](Cc1c[nH]c2ccccc12)NC(=O)c1cnc(N2CCN(C)CC2)s1 [minzasolmin]?
A: AUC inf [1, 4]: 99.0 ng·h/g; AUC last [1, 4]: 93.9 ± 4.2 ng·h/g; AUC inf [1, 5]: 422 ng·h/g; AUC last [1, 5]: 394 ± 21 ng·h/g; time of highest brain levels after dosing ([1]; brain, 1 and 5 mg/kg i.p.): 0.5 h; Kp ([1]; 1 mg/kg i.p.): 0.32; Kp ([1]; 5 mg/kg i.p.): 0.26; Tmax ([1]; brain, 1 mg/kg, brain, 1 mg/kg single i.p., C57/Bl6 mice, read-out: T max): 30 min; Tmax ([1]; brain, 5 mg/kg, brain, 5 mg/kg single i.p., C57/Bl6 mice, read-out: T max): 30 min; half-life [1, 4]: 33.6 min; Cmax [1, 4]: 76 ± 4 ng/g; half-life [1, 5]: 36 min; Cmax [1, 5]: 292 ± 30 ng/g; AUC(0-inf) [1, 6]: 308 ng·h/mL; half-life [1, 6]: 41.4 min; AUC(0-t) [1, 6]: 307 ± 13 ng·h/mL; Cmax [1, 6]: 332 ± 18 ng/mL; AUC(0-inf) [1, 7]: 1650 ng·h/mL; half-life [1, 7]: 49.8 min; AUC(0-t) [1, 7]: 1640 ± 86 ng·h/mL; Cmax [1, 7]: 1320 ± 124 ng/mL; Tmax ([1]; plasma, 1 mg/kg, plasma, 1 mg/kg single i.p., C57/Bl6 mice, read-out: T max): 30 min; Tmax ([1]; plasma, 5 mg/kg, plasma, 5 mg/kg single i.p., C57/Bl6 mice, read-out: T max): 15 min; Tmax ([1]; plasma, 5 mg/kg, plasma, 1 and 5 mg/kg i.p., read-out: time of maximum plasma concentration after dosing): 15 to 30 min; tolerability of treatments for the duration of the experiment (Line 61 transgenic mice [2]): well tolerated; effect on round beam composite score (gait) vs vehicle-treated Line 61 transgenic mice (Line 61 transgenic mice [3]; 1 mg/kg, after 70 days of treatment, P < 0.01): improved; also recorded: attenuated; round beam composite score, Kruskal-Wallis mean rank (Line 61 transgenic mice [3]; 1 mg/kg): 21.77; round beam composite score, Kruskal-Wallis mean rank (Line 61 transgenic mice [3]; 5 mg/kg): 16.80
